{"source": "patent US12583848B2", "about": "“Isoxazole-3-carboxamide derivatives and their use for treatment of diseases caused by virus infection” (Collaborations Pharmaceuticals, Inc., priority 2019, dated 2026)", "details": "mouse, in vivo, po"}
{"smiles": "Cc1cc(-c2noc(C(F)(F)F)n2)ccc1OCCCc1cc(C(=O)N(C)C)no1", "note": "[Compound 8, N,N-dimethyl-5-(3-{2-methyl-4-[5-(trifluoromethyl)-1,2,4-oxadiazol-3-yl]phenoxy}propyl)isoxazole-3-carboxamide]", "values": [{"measurement": "Maximum tolerated dose (MTD)", "result": "at least 100 milligrams per kilogram body weight per day"}]}
